The results in this text go back to PubChem BioAssay (NCI).

SMILES strings stand for the structures.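 Each compound was tested at five concentrations against cells in 96-well plates for 48 hours. TGI is the concentration that stops growth completely.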

Holding throughout (assay): DTP human tumour cell line panel, 48 h
In assay [1] the test system is 786-0 renal.
In assay [2] the test system is A549 NSCLC.
The test system of assay [3] is SF-539 CNS.
Assay [4] relates to COLO 205 colon.
For assay [5], the system named is HT29 colon.
For assay [6], the system named is OVCAR-5 ovarian.
Assay [7] has as its system OVCAR-3 ovarian.
Assay [8] has as its system RPMI-8226 leukemia.
The test system of assay [9] is MALME-3M melanoma.
For assay [10], the system named is NCI-H522 lung.
Assay [11] relates to NCI-H460 lung.
Assay [12] relates to HOP-62 NSCLC.
Assay [13] relates to A498 renal.
Assay [14] has as its system HCT-116 colon.
Assay [15] concerns SN12C renal.
The test system of assay [16] is NCI/ADR-RES ovarian.
Assay [17] concerns MDA-MB-435.
In assay [18] the test system is HS 578T breast.
The subject of assay [19] is MDA-MB-231 breast.
The test system of assay [20] is T-47D breast.

On to `COC1=C(C)C(=O)C2C(C1=O)C(c1ccc(OC)c(OC)c1)[C@H]2C` (stereo partly specified), for which the TGI in assay [1], in assay [2], in assay [3], in assay [4], in [5] and in [6] was over 100 µM in each case. Also, the TGI in [7], in [8], in [9], in assay [10], in assay [11] and in [12] was over 100 µM each time. For the same compound, in [13], the TGI was over 100 µM.

Turning to `COC(=O)C(C(=O)C(=O)Nc1c(Cl)cc([N+](=O)[O-])cc1Cl)c1nc2cc(C)c(C)cc2[nH]c1=O` (stereo unspecified), the TGI in [14], in [1], in [2], in assay [3], in assay [4] and in [5] was over 100 µM throughout. The TGI in assay [6], in [7], in [8], in assay [9], in assay [10] and in [11] was over 100 µM in each case. For the same compound, the TGI in assay [15], in [12] and in assay [13] was over 100 µM in each case.

Regarding `Nn1c(-c2ccccc2Nc2ccccc2-c2n[nH]c(=S)n2N)n[nH]c1=S`, the TGI in [14], in assay [1], in [3], in [4], in [5] and in [6] was over 50 µM in each case. Also, the TGI in assay [16], in assay [7], in [17], in [8], in [9] and in [10] was over 50 µM throughout. Besides, the TGI in assay [11] and in [12] was over 50 µM throughout.

`O=S1(=O)COc2ccccc2-c2ncncc21`: the TGI in [14], in assay [1], in [2], in assay [3], in assay [4] and in assay [5] was over 100 µM throughout. For the same compound, the TGI in assay [6], in assay [7], in assay [8], in assay [9], in assay [10] and in [11] was over 100 µM each time. Moreover, the TGI in assay [15], in [12] and in [13] was over 100 µM each time.

As for `CSc1sc(C)cc1-c1nsc(=O)o1`, the TGI in assay [14], in [1], in [2], in [4], in assay [5] and in assay [6] was over 100 µM throughout. In addition, the TGI in assay [16], in assay [17], in assay [8], in assay [9], in assay [10] and in [11] was over 100 µM each time. Besides, the TGI in assay [15], in assay [13] and in [18] was over 100 µM in each case.

For `CC(C)N(CCCNc1c2ccccc2nc2cccc([N+](=O)[O-])c12)C(C)C`, the TGI is under 0.01 µM in assay [19]; 0.391 µM in assay [14]; 0.155 µM in assay [1]; 0.0473 µM in assay [2]; under 0.0437 µM in [3]; under 0.015 µM in assay [4]. The TGI is 0.0935 µM in [5]; 3.68 µM in [16]; under 0.018 µM in assay [17]; under 0.0192 µM in assay [8]; under 0.0445 µM in [11]; 0.0433 µM in assay [13].

With `O=C(CC(=O)C(=O)CC(=O)OCc1ccccc1)OCc1ccccc1`, the TGI in [14], in assay [1], in [2], in assay [3], in assay [4] and in assay [5] was over 100 µM throughout. Besides, the TGI in [6], in [8], in [9], in assay [10], in assay [15] and in [12] was over 100 µM each time. This compound gave a TGI in assay [13] of over 100 µM.

With `Cn1c(=O)c2c(ncn2CCCCn2ccnc2[N+](=O)[O-])n(C)c1=O`, the TGI in [14], in assay [1], in assay [2], in [3], in assay [4] and in assay [5] was over 100 µM in each case. The TGI in [6], in assay [7], in assay [8], in assay [9], in [10] and in [11] was over 100 µM each time. Besides, the TGI in assay [15] and in [12] was over 100 µM each time.

`CN(C)c1ccc(/C=C2\C[C@H]3[C@@H]4CCC5=CC(=O)CC[C@]5(C)[C@H]4CC[C@]3(C)C2=O)cc1`: the TGI in [19] is over 100 µM; in [14] it was over 100 µM; in assay [1], over 100 µM; in [2], over 100 µM; in assay [3] it was over 100 µM; in assay [4], 64.8 µM. Also, the TGI in assay [5], in assay [20], in [6], in [16], in assay [7] and in [8] was over 100 µM in each case. The TGI is 72.9 µM in assay [9]; 51.1 µM in assay [11]; over 100 µM in assay [15]; over 100 µM in assay [12]; over 100 µM in [13]; over 100 µM in [18].

Consider `O=C(CN1CCOCC1)c1ccc2[nH]c(=O)oc2c1`, for which the TGI in [19], in [14], in assay [1], in [3], in assay [4] and in [5] was over 100 µM throughout. Also, the TGI in [6], in assay [16], in assay [7], in assay [17], in [8] and in assay [9] was over 100 µM in each case. Further, the TGI in assay [11], in assay [15], in [12], in assay [13] and in [18] was over 100 µM in each case.

As for `COc1ccc(NC(=O)CSc2nnc(Cc3ccccc3)o2)cc1`, the TGI in assay [14], in [1], in [2], in assay [3], in assay [4] and in [5] was over 100 µM throughout. Moreover, the TGI in assay [6], in assay [7], in assay [8], in assay [9], in assay [10] and in [11] was over 100 µM in each case. The TGI in assay [15], in assay [12] and in assay [13] was over 100 µM throughout.

With `N#Cc1ccc(Nc2cnc3cc(N)ccc3n2)cc1`, the TGI in [14], in assay [1], in assay [2], in assay [3], in assay [4] and in assay [5] was over 100 µM each time. For the same compound, the TGI in assay [6], in assay [7], in [8], in assay [9], in assay [10] and in [11] was over 100 µM each time. Further, the TGI in [15] and in [12] was over 100 µM in each case.

On to `O=C1CCCCC1C1(O)C(=O)Nc2cc(F)ccc21` (stereo unspecified), for which the TGI in assay [14], in assay [1], in [2], in [3], in assay [4] and in assay [5] was over 100 µM in each case. The TGI in [6], in [8], in assay [9], in assay [10], in [11] and in assay [15] was over 100 µM throughout. For the same compound, the TGI in [12] and in [13] was over 100 µM each time.

With `COC(=O)C(CCC1(C)OCCO1)C(C)=O` (stereo unspecified), the TGI in [14], in assay [1], in assay [2], in assay [3], in assay [4] and in assay [5] was over 100 µM throughout. Also, the TGI in assay [6], in assay [7], in [9], in [10], in assay [11] and in [15] was over 100 µM throughout. Also, the TGI in [12] and in assay [13] was over 100 µM throughout.

Turning to `CNC(=S)NNC(=O)c1c(C)nc2sccn12`, the TGI in assay [14], in [1], in assay [2], in assay [3], in assay [4] and in assay [5] was over 100 µM in each case. The TGI in [6], in [7], in [9], in [10], in assay [11] and in assay [15] was over 100 µM throughout. Further, the TGI in assay [12] is over 100 µM.

With `N#Cc1cc2c(n(C3OC(CO)C(O)C(O)C3O)c1=S)CCCCC2` (stereo unspecified), the TGI in [19], in [14], in [1], in assay [2], in assay [3] and in assay [4] was over 100 µM throughout. For the same compound, the TGI in [5], in [6], in [16], in [7], in assay [17] and in [8] was over 100 µM each time. For the same compound, the TGI in assay [9], in [10], in [11], in [15], in [12] and in assay [13] was over 100 µM throughout. Besides, the TGI in assay [18] is over 100 µM.

With `CCC(C)[C@H]1C(=O)N=C(N)N1C(=O)OCc1ccccc1` (stereo partly specified), the TGI in assay [19], in [14], in assay [1], in assay [4], in assay [5] and in [6] was over 100 µM in each case. Besides, the TGI in [16], in assay [7], in assay [17], in assay [8], in assay [9] and in assay [10] was over 100 µM in each case. In addition, the TGI in [11], in assay [15], in assay [12] and in assay [13] was over 100 µM throughout.

With `NS(=O)(=O)c1cc(S(N)(=O)=O)c(NC(=O)Nc2ccc(Cl)c(Cl)c2)c(Cl)c1Cl`, the TGI in assay [19], in [14], in assay [1], in assay [2], in assay [4] and in [5] was over 100 µM in each case. Further, the TGI in [6], in assay [16], in [7], in [17], in [8] and in [10] was over 100 µM each time. Moreover, the TGI in [11], in assay [15] and in assay [18] was over 100 µM each time.
